Data set [1] has as its target T1, tyrosinase in α-MSH-induced B16F10 melanoma cells (Mus musculus, UniProt P11344).
T1 construct: the supernatant was used as cellular tyrosinase solution; endogenous in cells; host or cells: B16F10 melanoma cells, α-MSH stimulated
T1 sequence (P11344 19-533): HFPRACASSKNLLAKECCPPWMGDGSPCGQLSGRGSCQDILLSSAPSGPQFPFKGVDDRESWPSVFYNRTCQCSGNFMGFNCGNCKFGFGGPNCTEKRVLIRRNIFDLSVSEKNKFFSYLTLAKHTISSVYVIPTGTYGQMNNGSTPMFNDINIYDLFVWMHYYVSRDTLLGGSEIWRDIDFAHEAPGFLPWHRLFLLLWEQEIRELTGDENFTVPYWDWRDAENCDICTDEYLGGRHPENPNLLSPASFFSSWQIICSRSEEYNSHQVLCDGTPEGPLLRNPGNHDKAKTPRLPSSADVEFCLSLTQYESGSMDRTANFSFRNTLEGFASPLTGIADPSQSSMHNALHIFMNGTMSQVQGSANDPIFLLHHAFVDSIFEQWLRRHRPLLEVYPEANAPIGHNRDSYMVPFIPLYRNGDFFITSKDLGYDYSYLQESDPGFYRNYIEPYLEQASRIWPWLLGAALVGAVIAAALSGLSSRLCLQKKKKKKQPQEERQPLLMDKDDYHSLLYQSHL
Description: Cellular tyrosinase assay (L-DOPA oxidation). It is filed as cell-based. As to conditions: 5 µM α-MSH 48 h; for intracellular tyrosinase level: α-MSH alone 215.73%; for effect on intracellular tyrosinase activity: 6.25, 12.5 and 25 µM. The method, then: Intracellular tyrosinase inhibitory activity was evaluated by measuring the rate of oxidation of L-DOPA [57]. […] The cells were washed with PBS and lysed with a radio immunoprecipitation assay buffer. The cell lysates were kept in a deep freezer (−80 °C) for 1 h. After defrosting the cell lysates, the cellular extracts were purified by centrifugation at 14,000 rpm for 20 min at 4 °C, and the supernatant was used as cellular tyrosinase solution. A total of 80 µL of supernatant and 20 µL of L-DOPA (2 mg/mL) were added to a 96-well plate and incubated at 37 °C for 45 min. Dopachrome formation was then measured spectrophotometrically at 450 nm using a microplate spectrophotometer (Molecular Devices). Intracellular tyrosinase activity was calculated as the percentage of control.

The subject of data set [2] is B16F10 melanoma cells. Nature of the data set: Melanin content assay in α-MSH-stimulated cells. Format: cell-based, mouse. The note with it: for melanin content: α-MSH alone 151.72%; for effect on melanin content: 6.25, 12.5 and 25 µM. Here is the method: Intracellular melanin content was determined according to a previously reported procedure with minor modifications. Briefly, B16F10 cells were seeded in a 24-well plate at 2 × 10,000 cells/well and incubated for 24 h in DMEM containing 10% FBS. Cells were pretreated with 6.25, 12.5, and 25 μM test compounds for 1 h and stimulated with 5 μM α-MSH for 48 h. […] The cells were washed with PBS and dissolved in 1 N NaOH containing 10% DMSO by boiling at 80 °C for 30 min. The cell lysates were centrifuged at 14,000 rpm for 20 min, and absorbance of the supernatant was measured at 405 nm. Melanin content was determined by normalizing the absorbance with total protein content.

Data set [3] has as its system tyrosinase protein expression in α-MSH-stimulated B16F10 cells. Nature of the data set: Tyrosinase protein levels via western blotting. Format: cell-based, mouse. The method, then:
The cell suspensions were centrifuged at 16,000 × g for 5 min, and the cell pellets were lysed in a lysis buffer and incubated on ice for 10 min. The cell lysates were centrifuged at 16,000 × g for 10 min, and the supernatant (total protein) was normalized using a Bradford protein assay kit. Aliquots of protein were resolved by sodium dodecyl sulfate-polyacrylamide gel electrophoresis and transferred onto a nitrocellulose membrane. The membrane was blocked with 10% nonfat milk (w/v) in tris-buffered saline with tween (TBST) (0.1 M Tris-HCl, pH 7.5, 1.5 M NaCl, 1% Tween20) for 2 h and incubated for approximately 24 h with TYR primary antibody. The immunoblots were then incubated with appropriate secondary antibodies for 2 h and detected using an enhanced chemiluminescence detection kit.
Background: Immunoblotting shows a protein as a band on a membrane.

Data set [4] addresses T2, mushroom tyrosinase (Agaricus bisporus, UniProt C7FF04).
T2 construct: purchased Sigma Aldrich
Description: Mushroom tyrosinase inhibitory assay (spectrophotometric). It is filed as biochemical. The note with it: mean ± SD, n = 3. The method, then: The inhibitory activity of mushroom tyrosinase was carried out using a spectrophotometric method described in [27] with slight modifications. […] Then, 20 µL of tyrosinase was added and incubated at room temperature for between 10 and 30 minutes. Absorbance was measured at 490 nm after incubation.

Data set [5] is described as follows: Cell viability, MTT assay. It is filed as cell-based. As to conditions: mouse. The method, then:
B16F10 mouse melanoma cells obtained from American Type Culture Collection (Manassas, VA, USA) were maintained in 10% FBS in high-glucose DMEM containing 100 U/mL penicillin and 100 μg/mL streptomycin at 37 °C in a humidified atmosphere with 5% CO2. Cytotoxicity was evaluated using a 3-(4,5-dimethylthiazol-2-yl)-2,5-diphenyltetrazolium bromide (MTT) assay. After 95% of confluence, B16F10 cells were seeded in a 96-well plate at 10,000 cells/well and incubated for 24 h in DMEM supplemented with 10% FBS. The cells were then fed fresh serum-free DMEM containing different concentrations (25 to 100 μM) of the test compounds and incubated for 48 h. After that, the cells were incubated with 100 μL of MTT at a concentration of […] in phosphate-buffered saline (PBS) for 2 h. Absorbance was measured at 490 nm by a microplate reader (Promega Corporation Instrument, USA) after 2 h of incubation. The viability of cells at 48 h upon co-treatment with α-MSH was evaluated by treating cells with 5 μM α-MSH 1 h after the treatment with test compounds.
In general terms: Tetrazolium dyes change colour on reduction, which living cells bring about.

Data set [6] deals with T2, mushroom tyrosinase. Nature of the data set: Kinetic study against mushroom tyrosinase (Lineweaver-Burk and secondary plots). It is filed as biochemical. Here is the method:
The inhibition type was determined using a Lineweaver–Burk plot. The apparent slope (Kmapp/Vmaxapp) and intercept (1/Vmaxapp) versus different inhibitor concentrations was used to determine the inhibition constant (Ki). Different kinetic parameters were obtained for different concentrations of the substrate (0.5, 0.75, and 1 mM) and inhibitors (compound 1—0.0, 4.0, 6.6, and 9.3 µM; compound 3—0, 2.5, 2.6, and 2.7 µM). Sigmaplot version 12.0 (SPSS Inc., Chicago, IL, USA) was employed to generate the plots.

Setting [7] is: IC50 L-Tyrosine, substrate L-tyrosine.

From PMC6562427, “A New Tyrosinase Inhibitor from the Red Alga Symphyocladia latiuscula (Harvey) Yamada (Rhodomelaceae)” (Marine Drugs, 2019) come the findings set out here.

Structures are written as SMILES. Like-named read-outs stand apart in the source and are kept apart here. Where only a bound is given, the exact number is not on record here.

The IC50 is the midpoint of a concentration-inhibition curve. Higher therefore signals lower potency. As usually defined, the Ki is a measure of affinity in units of concentration, obtained from inhibition or displacement. Read a low Ki as a stronger hold on the target.

T2 sequence (C7FF04 1-392): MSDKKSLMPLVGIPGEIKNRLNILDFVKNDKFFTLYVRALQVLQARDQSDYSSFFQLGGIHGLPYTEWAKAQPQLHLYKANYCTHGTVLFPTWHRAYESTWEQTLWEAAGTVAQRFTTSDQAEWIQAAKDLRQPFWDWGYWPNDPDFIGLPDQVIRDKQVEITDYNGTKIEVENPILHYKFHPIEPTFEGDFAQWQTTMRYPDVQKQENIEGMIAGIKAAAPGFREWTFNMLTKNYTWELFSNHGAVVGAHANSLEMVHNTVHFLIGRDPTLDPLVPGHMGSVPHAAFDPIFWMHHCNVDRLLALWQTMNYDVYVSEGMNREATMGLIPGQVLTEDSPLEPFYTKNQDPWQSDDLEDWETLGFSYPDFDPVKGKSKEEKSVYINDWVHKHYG

Regarding `OC[C@H]1O[C@@H](Oc2ccc(O)cc2)[C@H](O)[C@@H](O)[C@@H]1O` [Arbutin, reference compound], the intracellular tyrosinase level in data set [1] (500 µM) was 130.75%. The melanin content in data set [2] (500 µM, 5 µM α-MSH 48 h) turned out to be 124.06%. In addition, the tyrosinase protein expression result in data set [3] (arbutin pre-treatment (positive control)) is given as “significantly reduced the expression levels”.

Turning to `COCc1c(Br)c(O)c(O)c(Br)c1Br` [Compound 2, 2,3,6-tribromo-4,5-dihydroxybenzyl methyl ether], the concentration for half-maximal inhibition (IC50) in data set [4] (IC50 L-DOPA, substrate L-DOPA) was more than 300 µM; in data set [4] (setting [7]), 113.9 ± 0.75 µM. For the same compound, the “effect on intracellular tyrosinase activity” value in data set [1] was “did not show a significant reduction”. The “effect on melanin content” value in data set [2] (5 µM α-MSH 48 h) is on record as “no significant reduction”. Moreover, the tyrosinase protein expression entry in data set [3] (6.25, 12.5 and 25 μM, 48 h) is given as “did not reduce expression”. Also, the viability at 48 h, 100 µM in data set [5] (100 µM, 48 h, MTT, read-out: viable cells) is approximately 100%.

With `Oc1c(O)c(Br)c(COCc2c(Br)c(O)c(O)c(Br)c2Br)c(Br)c1Br` [Compound 3, bis-(2,3,6-tribromo-4,5-dihydroxybenzylmethyl ether)], the half-maximal inhibitory concentration (IC50) in data set [4] (IC50 L-DOPA, substrate L-DOPA) was determined as 111 ± 4.95 µM; in data set [4] (setting [7]) it was 2.92 ± 0.04 µM. The compound further had an intracellular tyrosinase level in data set [1] (25 µM) of 94.81%. Besides, the “effect on intracellular tyrosinase activity” value in data set [1] is on record as “decreased in a dose-dependent manner”. In data set [6], the inhibitory constant (Ki) was determined as 1.98 µM. In addition, the “Inhibition Type” value in data set [6] (substrate L-tyrosine, from Lineweaver-Burk plots) is given as “competitive-type inhibition”. Also, the melanin content in data set [2] (25 µM, pretreated 1 h then 5 µM α-MSH 48 h) came out at 98.68%. The “effect on melanin content” value in data set [2] (5 µM α-MSH 48 h) was “reduced the melanin content in a dose-dependent manner”. For the same compound, the tyrosinase protein expression entry in data set [3] (6.25, 12.5 and 25 μM, 48 h) is on record as “inhibited α-MSH-induced accumulation of tyrosinase proteins in a concentration-dependent manner”. Further, the viability at 48 h, 100 µM in data set [5] is 86.9%.
